Experimental data from publication PMC8588131, “Synthesis, In Silico Studies, and Evaluation of Syn and Anti Isomers of N-Substituted Indole-3-carbaldehyde Oxime Derivatives as Urease Inhibitors against Helicobacter pylori” (Molecules, 2021).

What was measured:
[1] = test system: Macrotyloma uniflorum urease; experiment: in vitro urease inhibitory assay (modified Berthelot reaction, indophenol blue, absorbance at 630 nm); assay type: biochemical, Macrotyloma uniflorum (Horse gram); settings: for Maximum Percentage of Inhibition: maximum over tested range 5.00-35.00 μg/mL; for IC50: urease extracted from Macrotyloma uniflorum, thiourea as standard inhibitor, 37 °C, pH 7.2
Procedure: All synthesized oxime compounds (2, 6, 7, 8, and 9) were evaluated for the in vitro urease inhibitory activity using a colorimetric method. This method involves the formation of indophenol blue in a basic medium where the modified Berthelot reaction is used. The urease enzyme required for the assay was extracted from Macrotyloma uniflorum (Horse gram) with the activity of 0.1013 U, and thiourea was used as the standard inhibitor [34]. The amount of ammonia produced within a given period of time was quantified using a standard calibration method.
Modified Berthelot method was used for the determination of the amount of produced ammonia, and thereby for the quantification of the urease inhibitory activities of the synthesized oxime derivatives (compounds 2, 6, 7, 8, and 9) by measuring their absorbance at 630 nm. All the test compounds and thiourea were prepared by dissolving 2 mg of each compound in 20 mL of 1.25% DMF - buffer solution (pH = 7.2, Na2HPO4 = 0.067 mol dm^−3, KH2PO4 = 0.033 mol dm^−3). DMF doesn’t show any inhibitory effect on urease activity. Initially, a 96 well plate filled with 10 μL of urease enzyme (0.01 U) and 10–70 μL of the test compound was placed in the plate reader and incubated at 37 °C for 15 min. (Concentration of each sample was changed by varying the volume of test compounds from 10 to 70 μL.) Then, to each well, 10 μL of the buffer, 10 μL of EDTA (0.025 mol dm^−3), and 10 μL of urea (0.64 mol dm^−3) were added. After that, 80–20 μL of distilled water was added accordingly to adjust the total volume to 130 μL and incubated in plate reader for another 20 min at 37 °C. Then 35 μL of each coloring agents ((coloring agent A—1% (w/v) phenol, 0.005% (w/v) sodium nitroprusside and coloring agent B—0.5% (w/v) NaOH, 0.05% (v/v) NaOCl)) were introduced to each well, and the plate was incubated in plate reader for another 50 min at 37 °C for the development of indophenol blue color. At the end of the 50 min, the absorbance of each sample was measured at the absorbance wavelength of 630 nm. A control test was conducted to quantify the total hydrolysis of urea in the presence of urease (C). Negative control was carried out to quantify the spontaneous hydrolysis of urea in the absence of the urease enzyme (N). For each sample (T1–7), a negative control test (N1–7) was performed in the absence of the urease enzyme. All experiments were performed thrice. The percentage inhibition of the urease enzyme was calculated using Equation (1). (1) percentage inhibition=[[AC−AN]−[AT1−AN1]/[AC−AN]]×100 where • AC = Absorbance of the control sample (C) • AN = Absorbance of the negative control sample (N) • AT1−7 = Absorbance of the test sample (T1 to T7) • AN1−7 = Absorbance of the negative control of the test sample (N1 to N7)

Q: Which “Percentage inhibition (± SEM)” value ([1]; at 5.00 μg/mL) does the source give for O/N=C\c1c[nH]c2ccccc12 [Compound 2, (Z)-N-hydroxy-1-(1H-indole-3-yl)methanimine] here?
A: Its value is 17.46 ± 0.71%.

Q: And the “Percentage inhibition (± SEM)” value ([1]; at 10.00 μg/mL)?
A: The value was 24.56 ± 0.53%.

Q: And the “Percentage inhibition (± SEM)” value ([1]; at 15.00 μg/mL)?
A: The value was 29.28 ± 0.52%.

Q: What about the “Percentage inhibition (± SEM)” value ([1]; at 20.00 μg/mL) of the same compound?
A: The value was 39.40 ± 0.65%.

Q: And the “Percentage inhibition (± SEM)” value ([1]; at 25.00 μg/mL)?
A: Its value is 57.27 ± 0.63%.

Q: And the “Percentage inhibition (± SEM)” value ([1]; at 30.00 μg/mL)?
A: Its value is 64.87 ± 0.93%.

Q: What about the “Maximum Percentage of Inhibition” value [1] of the same compound?
A: The value was 67.81%.

Q: And the IC50 [1]?
A: The IC50 was 141 ± 7.5 µM.

Q: Which “Percentage inhibition (± SEM)” value ([1]; at 5.00 μg/mL) does the source give for Cn1cc(/C=N\O)c2ccccc21 [Compound 6, (Z)-N-hydroxy-1-(1-methyl-1H-indol-3-yl)methanimine] here?
A: Its value is 24.57 ± 1.22%.

Q: What about the “Percentage inhibition (± SEM)” value ([1]; at 10.00 μg/mL) of the same compound?
A: The value was 28.15 ± 0.81%.

Q: What about the “Percentage inhibition (± SEM)” value ([1]; at 15.00 μg/mL) of the same compound?
A: Its value is 29.91 ± 0.90%.

Q: What about the “Percentage inhibition (± SEM)” value ([1]; at 20.00 μg/mL) of the same compound?
A: The value was 40.38 ± 0.24%.

Q: And the “Percentage inhibition (± SEM)” value ([1]; at 25.00 μg/mL)?
A: Its value is 55.76 ± 0.60%.

Q: And the “Percentage inhibition (± SEM)” value ([1]; at 30.00 μg/mL)?
A: The value was 73.07 ± 0.35%.

Q: And the “Maximum Percentage of Inhibition” value [1]?
A: The value was 77.05%.

Q: And the IC50 [1]?
A: Its IC50 is 140 ± 4.5 µM.

Q: And the melting point?
A: The melting point was 112 to 115 °C.

Q: For Cn1cc(/C=N/O)c2ccccc21 [Compound 7, (E)-N-hydroxy-1-(1-methyl-1H-indol-3-yl)methanimine], which “Percentage inhibition (± SEM)” value ([1]; at 5.00 μg/mL) is on record?
A: Its value is 22.74 ± 0.93%.

Q: What about the “Percentage inhibition (± SEM)” value ([1]; at 10.00 μg/mL) of the same compound?
A: Its value is 31.87 ± 0.59%.

Q: And the “Percentage inhibition (± SEM)” value ([1]; at 15.00 μg/mL)?
A: The value was 38.14 ± 1.25%.

Q: What about the “Percentage inhibition (± SEM)” value ([1]; at 20.00 μg/mL) of the same compound?
A: The value was 44.38 ± 0.35%.

Q: And the “Percentage inhibition (± SEM)” value ([1]; at 25.00 μg/mL)?
A: Its value is 48.92 ± 0.67%.

Q: And the “Percentage inhibition (± SEM)” value ([1]; at 30.00 μg/mL)?
A: The value was 53.01 ± 0.85%.

Q: What about the “Maximum Percentage of Inhibition” value [1] of the same compound?
A: Its value is 57.17%.

Q: What about the IC50 [1] of the same compound?
A: Its IC50 is 153 ± 1.6 µM.

Q: What about the melting point of the same compound?
A: Its melting point is 126 to 129 °C.

Q: With O/N=C\c1cn(Cc2ccccc2)c2ccccc12 [Compound 8, (Z)-1-(1-benzyl-1H-indol-3-yl)-N-hydroxymethanimine] as the compound, how does the “Percentage inhibition (± SEM)” value ([1]; at 5.00 μg/mL) read?
A: Its value is 36.36 ± 0.79%.

Q: And the “Percentage inhibition (± SEM)” value ([1]; at 10.00 μg/mL)?
A: Its value is 44.39 ± 0.70%.

Q: What about the “Percentage inhibition (± SEM)” value ([1]; at 15.00 μg/mL) of the same compound?
A: Its value is 58.52 ± 0.58%.

Q: And the “Percentage inhibition (± SEM)” value ([1]; at 20.00 μg/mL)?
A: Its value is 67.99 ± 1.01%.

Q: And the “Percentage inhibition (± SEM)” value ([1]; at 25.00 μg/mL)?
A: Its value is 76.49 ± 1.24%.

Q: What about the “Percentage inhibition (± SEM)” value ([1]; at 30.00 μg/mL) of the same compound?
A: Its value is 79.64 ± 0.88%.

Q: And the “Maximum Percentage of Inhibition” value [1]?
A: The value was 83.78%.

Q: And the IC50 [1]?
A: Its IC50 is 51.6 ± 3.5 µM.

Q: And the melting point?
A: The melting point was 132 to 134 °C.

Q: What does the source list for O/N=C/c1cn(Cc2ccccc2)c2ccccc12 [Compound 9, (E)-1-(1-benzyl-1H-indol-3-yl)-N-hydroxymethanimine]?
A: Percentage inhibition (± SEM) ([1]; at 5.00 μg/mL): 33.06 ± 1.23%; Percentage inhibition (± SEM) ([1]; at 15.00 μg/mL): 72.38 ± 0.77%; Percentage inhibition (± SEM) ([1]; at 20.00 μg/mL): 77.61 ± 1.55%; Percentage inhibition (± SEM) ([1]; at 25.00 μg/mL): 83.21 ± 0.82%; Percentage inhibition (± SEM) ([1]; at 30.00 μg/mL): 84.89 ± 0.47%; Maximum Percentage of Inhibition [1]: 86.09%; IC50 [1]: 34.5 ± 0.8 µM; melting point: 140 to 143 °C

Q: For NC(N)=S [Thiourea, thiourea, reference compound], which “Percentage inhibition (± SEM)” value ([1]; at 5.00 μg/mL) is on record?
A: The value was 11.24 ± 0.28%.

Q: And the “Percentage inhibition (± SEM)” value ([1]; at 10.00 μg/mL)?
A: The value was 22.61 ± 0.49%.

Q: And the “Percentage inhibition (± SEM)” value ([1]; at 15.00 μg/mL)?
A: The value was 38.41 ± 0.63%.

Q: And the “Percentage inhibition (± SEM)” value ([1]; at 20.00 μg/mL)?
A: The value was 61.54 ± 0.53%.

Q: What about the “Percentage inhibition (± SEM)” value ([1]; at 25.00 μg/mL) of the same compound?
A: The value was 74.36 ± 0.50%.

Q: And the “Percentage inhibition (± SEM)” value ([1]; at 30.00 μg/mL)?
A: The value was 81.49 ± 0.67%.

Q: And the “Maximum Percentage of Inhibition” value [1]?
A: The value was 85.14%.

Q: And the IC50 [1]?
A: Its IC50 is 239 ± 4.8 µM.
